Key:
[1] = Vmax in polyclonal antibody reactions; format: ADME
[2] = Michaelis-Menten constant in polyclonal antibody reactions; format: ADME

- Vmax [1]: 0.98 µM/min
- Km [2]: 96 µM
SMILES: C=C/C=C/CCOC(=O)CCC(=O)OCc1ccccc1
